Measurements as given in patent US20260183321A1, “TREATMENT OF CORONAVIRUS INFECTIONS WITH ANTIMICROBIAL PHOSPHOLIPID COMPOSITIONS” (NATIONAL JEWISH HEALTH, priority 2022, published 2026).

Tests used:
SARS-CoV-2 [1] = assay: quantitative plaque assay for SARS-CoV-2 in VeroE6 cells; assay type: cell-based; parameters: lowest concentration with significant reduction in viral load: unit not given here; conditions: for suppression of the viral burden elicited by SARS-CoV-2: MOI 0.01, 24 Hr after the initial infection, simultaneous treatment with virus plus lipid
Method: VeroE6 cells were infected with SARS-CoV-2 at an MOI=0.01 in either the absence of lipids, or presence of POPG, or PI, or POPC, at concentrations of 250 μg/ml-1000 μg/ml (SARS-CoV-2+POPG, SARS-CoV-2+PI) or the control lipid phosphatidylcholine (PC), at various concentrations (250 μg-1000 μg/ml) (SARS-CoV-2+PC). Cells were preincubated with lipids 30 mins before viral inoculation. Culture media was harvested at 24 hr and processed for quantitative plaque assay for SARS-CoV-2 (FIG. 1A) and for viral yield as a function of phospholipid concentration (FIG. 1). The data are shown as mean+/−SE for three independent experiments in log10 scale. is a graph of viral yield as a function of phospholipid concentration.
A sample holder containing 96 wells (3 plates) was provided and was plated with VeroE6 cells (a cell lineage isolated from kidney epithelial cells extracted from an African green monkey) at a concentration of 5×10^4 cells/well in 100 μl of medium. The medium utilized comprised Dulbecco's Modified Eagle Medium (DMEM), 5% fetal bovine serum (FCS), 1% L-glutamine, and 10,000 U/ml penicillin-streptomycin (PS). Here, it is noted that the antibiotics penicillin and streptomycin are commonly utilized to prevent bacterial contamination of cell cultures due to their effective combined action against gram-positive and gram-negative bacteria.
The wells were washed two times with calcium-free and magnesium-free phosphate buffered saline (PBS) (100 μl/well), and then an additional time with a culture medium consisting of DMEM, L-glutamine, 0.1% bovine serum albumin (BSA) and 10,000 U/ml PS.
The cells were then preincubated with lipids in the culture medium (100 μl/well) for 30-60 minutes at 37° C. Samples of SARS-CoV-2 virus were added at multiplicities of infection (MOI) of 0.01 and the virus was allowed to absorb for 2 hours at 37° C. […]
FIGS. 1A and 1B depicts the results obtained for quantitative plaque assay for SARS-CoV-2 (FIG. 1A) and for % viral yield as a function of phospholipid concentration (FIG. 1B).

VeroE6 cells = assay: cell viability assays on VeroE6 cells; assay type: cell-based, African green monkey; conditions: 2 mg/ml
SARS-CoV-2 [2] = assay: cytopathic effect by SARS-CoV-2 in VeroE6 cells (histological images); assay type: cell-based; conditions: 72 hrs after infection, POPG 1000 μg/ml, PI 500 μg/ml, PC 2000 μg/ml
SARS-CoV-2 [3] = assay type: cell-based; conditions: 48 hrs; for reduction of SARS-CoV-2 mRNA expression: healthy control subjects (n=3), lipid 16 hrs before infection, 5 mg/ml POPG, 2 mg/ml PI
SARS-CoV-2 [4] = assay: SARS-CoV-2 replication by qRT-PCR in differentiated nasal epithelial cells from a patient with COPD; assay type: cell-based; conditions: 48 hrs, 5 mg/ml POPG, 2 mg/ml PI
[5] = test system: primary human bronchial epithelial cells; assay: 3H-leucine protein synthesis and secretion in primary human bronchial epithelial cells in ALI cultures; assay type: cell-based; conditions: for pleiotropic inhibition of metabolism (3H-intracellular protein synthesis, 3H secreted protein): 64 h with 3H-leucine, 5 mg/mL POPG or 2 mg/ml PI in apical media; for cytotoxic effects on primary airway epithelial cells: cells from patients with COPD as worded in b103 (FIGS. 11A-11B)
Method: Bronchial epithelia cells were incubated for 64 h with 3H-leucine in either the presence, or absence of 5 mg/mL of POPG; or 2 mg/ml of PI in only the apical media. 3H-intracellular protein synthesis (FIG. 11A), and 3H secreted protein in apical media (FIG. 11B) are shown. […]

[6] = biological target: T1, SARS-CoV-2 S1 ECD protein (Severe acute respiratory syndrome coronavirus 2, UniProt P0DTC2); assay: binding to SARS-CoV-2 S1 ECD protein
T1 construct: SARS-CoV-2 S1 ECD protein

SARS-CoV-2 [7] = assay: hamster model of SARS-CoV-2 infection, intranasal treatment; assay type: in vivo, Syrian hamsters

Compound | suppression of the viral burden elicited by SARS-CoV-2 (SARS-CoV-2 [1]) [%] | toxicity on VeroE6 cells (VeroE6 cells) | state of infected cell cultures (cytopathic effect) (SARS-CoV-2 [2]) | reduction of SARS-CoV-2 mRNA expression (SARS-CoV-2 [3]) [%] | replication in differentiated nasal epithelial cells of severe asthmatics (SARS-CoV-2 [3]) | attenuation of SARS-CoV-2 replication (SARS-CoV-2 [4]) [%] | pleiotropic inhibition of metabolism (3H-intracellular protein synthesis, 3H secreted protein) [5] | cytotoxic effects on primary airway epithelial cells [5] | binding to SARS-CoV-2 S1 ECD protein [6] | effect on SARS-CoV-2 replication (SARS-CoV-2 [3]; healthy control subjects, PC 10 mg/ml) | lowest concentration with significant reduction in viral load (SARS-CoV-2 [1]; 24 hr) | SARS-CoV-2 replication in hamsters (plaque assays of pharyngeal swabs) (SARS-CoV-2 [7]; PI 2 mg/animal intranasal, days 1-3) | mean turbinate viral load (SARS-CoV-2 [7]; hamsters, 2 mg PI intranasal, after 24 hours, untreated group 2.4E+04) | % inhibition of viral load (SARS-CoV-2 [7]; hamsters, single dose of 2 mg PI, after 24 hours, versus untreated) [%]
CCCCCCCC/C=C\CCCCCCCC(=O)O[C@H](COC(=O)CCCCCCCCCCCCCCC)COP(=O)(O)OCC(O)CO (stereo partly shown) [POPG, palmitoyl-oleoyl-phosphatidylglycerol] | 90 | Neither POPG, PI or POPC elicited toxicity | remained intact | 75 | inhibit replication | 80 | does not produce pleiotropic inhibition of metabolism | neither POPG nor PI had cytotoxic effects | weak affinity and non-specific manner |  |  |  |  | 
phosphatidylcholine [PC, reference compound] |  | Neither POPG, PI or POPC elicited toxicity | significant cytopathic effects |  |  |  |  |  |  | did not affect SARS-CoV-2 replication |  |  |  | 
phosphatidylinositol [PI] | 99 | Neither POPG, PI or POPC elicited toxicity | remained intact | 87 | inhibit replication | 85 | does not produce pleiotropic inhibition of metabolism | neither POPG nor PI had cytotoxic effects | weak affinity and non-specific manner |  | ≥ 250 | inhibits SARS-CoV-2 replication | 9.3E+01 | 99.6
